Reference: patent US20190225650A1, “PEPTIDOMIMETIC MACROCYCLES AND USE THEREOF IN REGULATING HIF1ALPHA” (AILERON THERAPEUTICS, INC., priority 2013, published 2019)
Bridge positions count the residues as written; N and C are the ends. Square brackets hold non-standard residues; d marks the D form. Peptide text beside a SMILES is read from it. R8 = C=CCCCCCC[C@@](C)(N)C(=O)O; S5 = C=CCCC[C@](C)(N)C(=O)O; Nle = CCCC[C@H](N)C(=O)O; Abu = CC[C@H](N)C(=O)O

Assays:
[1] = system: HRE-bla ME-180 cells; test: Cell proliferation assay (viability, MTT, 1% FBS); type: cell-based, human
Outline: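 Viable cell number was measured with the CellTiter 96 (MTT) kit after compounds were applied for a 16 h normoxic (21% O2) pretreatment, followed by further normoxic or hypoxic (1% O2) culture. Cells: 2×10^4 ME-180 per well, Opti-MEM + 1% FBS, 0.5% DMSO vehicle.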

[2] = system: HRE-bla ME-180 cells; test: Reporter gene assay (HRE-bla ME-180 HIF reporter, GeneBLAzer); type: cell-based, human; conditions: for EC50: 24 hour normoxia
Outline: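 A FRET β-lactamase readout of HIF transcription was used. After compound treatment in 0.3% DMSO/media under normoxic conditions, 20 μl of 6× LiveBLAzer-FRET B/G (CCF4-AM) substrate was added. Plates sat 3 hr at room temperature in the dark and were read at 409 Ex/460Em and 409Ex/530Em on a Synergy 2. Inhibition was compared against DMSO vehicle controls, with chetomin as positive control.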

[3] = target: T1, flag-tagged HIF1α (AA 786-826) / His6-tagged p300 (AA 323-423) complex (Homo sapiens, UniProt Q09472); test: HIF1α p300 displacement assay (TR FRET, +CHAPS); type: binding; conditions: read-out: IC50 (nM) (HIF1α_p300 Displacement + CHAPS)
T1 construct: His6-tagged p300 (AA 323-423); made in house; host or cells: E. coli (pETDuet vector)
Outline: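 In this TR-FRET displacement format, peptides compete HIF1α C-terminal transactivation domain off p300-CH. They were preincubated 1 h at room temperature with 300 nM complex in HEPES pH 7.4/NaCl buffer with 7.5 mM CHAPS and 1 mM DTT. Anti-His-D2 (4 nM) and anti-Flag-K (0.5 μM) followed for 2 h, and a one-site fit of the fluorescence ratio gave IC50.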

T1 sequence (Q09472 323-423, one chain of several): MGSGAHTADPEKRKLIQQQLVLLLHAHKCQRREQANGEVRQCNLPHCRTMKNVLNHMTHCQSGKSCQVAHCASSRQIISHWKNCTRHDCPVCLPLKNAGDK

| EC50 [2] | IC50 [3] | SMILES | Viability 1% FBS AVG (MTT V3-24 hr Normoxia) (μM) [1] | 18 h Avg % max inhibition at top conc (HIF Rptr-24 hrs normoxia) (μM) [2] |
| --- | --- | --- | --- | --- |
| ≤ 5 µM | > 700 nM | CCCC[C@H](NC(=O)[C@H](CCC(=O)O)NC(=O)[C@]1(C)CCCC=CCCCCCC[C@@](C)(NC(=O)[C@H](CCC(=O)O)NC(=O)[C@H](CC(=O)O)NC(=O)[C@@H](NC(=O)[C@H](CC(N)=O)NC(=O)[C@@H](NC(=O)[C@H](CCC(N)=O)NC(=O)[C@]2(C)CCCC=CCCC[C@](C)(NC(=O)[C@H](CC(C)C)NC(=O)[C@H](CCC(=O)O)NC(=O)[C@H](CCC(=O)O)NC(=O)CNC(=O)[C@H](CCC(N)=O)NC(=O)[C@H](CC(C)C)NC(=O)[C@H](CC(C)C)NC(C)=O)C(=O)N[C@@H](CCCNC(=N)N)C(=O)N[C@@H](C)C(=O)N[C@@H](CC(C)C)C(=O)N2)C(C)C)[C@@H](C)CC)C(=O)N[C@@H](C(C)C)C(=O)N[C@@H](CC(C)C)C(=O)N[C@@H](CCCC)C(=O)N[C@@H](CO)C(=O)N[C@@H](CC(C)C)C(=O)N[C@@H](C(C)C)C(=O)N1)C(=O)NCC(N)=O [SP-312] (Ac-LLQGEEL[S5]RAL[S5]QVNIDE[R8]VL[Nle]SLV[S5]E[Nle]G-NH2; staple 8-12, 19-26) | ++++ (≥30: ++++) | ++++ (≥50: ++++) |
| > 30 µM | 200 to 400 nM | CCCC[C@H](NC(=O)[C@H](CCC(=O)O)NC(=O)[C@]1(C)CCCC=CCCCCCC[C@@](C)(NC(=O)[C@H](CCC(=O)O)NC(=O)[C@H](CC(=O)O)NC(=O)[C@@H](NC(=O)[C@H](CC(N)=O)NC(=O)[C@@H](NC(=O)[C@]2(C)CCCC=CCCCCCC[C@@](C)(NC(=O)[C@H](CCC(=O)O)NC(=O)CNC(=O)[C@H](CCC(N)=O)NC(=O)[C@H](CC(C)C)NC(=O)[C@H](CC(C)C)NC(C)=O)C(=O)N[C@@H](CC(C)C)C(=O)N[C@@H](CC(C)C)C(=O)N[C@@H](CCCNC(=N)N)C(=O)N[C@@H](C)C(=O)N[C@@H](CC(C)C)C(=O)N[C@@H](CC(=O)O)C(=O)N2)C(C)C)[C@@H](C)CC)C(=O)N[C@@H](C(C)C)C(=O)N[C@@H](CC(C)C)C(=O)N[C@@H](CCCC)C(=O)N[C@@H](CO)C(=O)N[C@@H](CC(C)C)C(=O)N[C@@H](C(C)C)C(=O)N1)C(=O)NCC(N)=O [SP-313] (Ac-LLQGE[R8]LLRALD[S5]VNIDE[R8]VL[Nle]SLV[S5]E[Nle]G-NH2; staple 6-13, 19-26) | ++++ (≥30: ++++) | + (<10: +) |
| > 30 µM | 400 to 700 nM | CC[C@H](C)[C@H](NC(=O)[C@H](CC(N)=O)NC(=O)[C@@H](NC(=O)[C@H](CCC(N)=O)NC(=O)[C@H](CC(=O)O)NC(=O)[C@H](CC(C)C)NC(=O)[C@H](C)NC(=O)[C@H](CCCNC(=N)N)NC(=O)[C@H](CC(C)C)NC(=O)[C@H](CC(C)C)NC(=O)[C@H](CCC(=O)O)NC(=O)[C@H](CCC(=O)O)NC(=O)CNC(=O)[C@H](CCC(N)=O)NC(=O)[C@H](CC(C)C)NC(=O)[C@H](CC(C)C)NC(C)=O)C(C)C)C(=O)N[C@@H](CC(=O)O)C(=O)N[C@@H](CCC(=O)O)C(=O)N[C@@]1(C)CCCC=CCCC[C@@](C)(C(=O)N[C@@H](CC(C)C)C(=O)N[C@H](C(=O)N[C@H](C(=O)N[C@@H](CCC(=O)O)C(=O)N[C@@H](CCSC)C(N)=O)[C@@H](C)CC)C(C)C)NC(=O)[C@H](CCSC)NC(=O)[C@H](CC(C)C)NC(=O)[C@H](C(C)C)NC1=O [SP-318] (Ac-LLQGEELLRALDQVNIDE[S5]VLM[S5]LVIEM-NH2; staple 19-23) | ++++ (≥30: ++++) | + (<10: +) |
| > 30 µM | 200 to 400 nM | CC[C@H](C)[C@H](NC(=O)[C@H](CC(N)=O)NC(=O)[C@@H](NC(=O)[C@H](CCC(N)=O)NC(=O)[C@H](CC(=O)O)NC(=O)[C@H](CC(C)C)NC(=O)[C@H](C)NC(=O)[C@H](CCCNC(=N)N)NC(=O)[C@H](CC(C)C)NC(=O)[C@H](CC(C)C)NC(=O)[C@H](CCC(=O)O)NC(=O)[C@H](CCC(=O)O)NC(=O)CNC(=O)[C@H](CCC(N)=O)NC(=O)[C@H](CC(C)C)NC(=O)[C@H](CC(C)C)NC(C)=O)C(C)C)C(=O)N[C@@H](CC(=O)O)C(=O)N[C@@H](CCC(=O)O)C(=O)N[C@]1(C)CCCCCCC=CCCC[C@@](C)(C(=O)N[C@@H](CCC(=O)O)C(=O)N[C@@H](CCSC)C(N)=O)NC(=O)[C@H](C(C)C)NC(=O)[C@H](CC(C)C)NC(=O)[C@H](CO)NC(=O)[C@H](CCSC)NC(=O)[C@H](CC(C)C)NC(=O)[C@H](C(C)C)NC1=O [SP-320] (Ac-LLQGEELLRALDQVNIDE[R8]VLMSLV[S5]EM-NH2; staple 19-26) | ++++ (≥30: ++++) | + (<10: +) |
| 15 to 30 µM | 200 to 400 nM | CC[C@@H]1NC(=O)[C@H](CC(=O)O)NC(=O)[C@H](Cc2ccc(O)cc2)NC(=O)[C@@](C)(NC(=O)[C@@H](NC(=O)[C@H](CC(C)C)NC(=O)[C@H](CCC(N)=O)NC(=O)[C@@H]2CCCN2C(=O)[C@H](CC(C)C)NC(=O)[C@H](CCC(=O)O)NC(=O)[C@H](CCCCN)NC(=O)[C@@H](NC(=O)[C@H](CCCNC(=N)N)NC(=O)[C@H](CC(=O)O)NC(=O)[C@H](CC(C)C)NC(=O)CNC(=O)[C@H](CCSC)NC(=O)[C@]2(C)CCCC=CCCC[C@](C)(NC(=O)[C@H](CCSC)NC(=O)[C@H](CC(C)C)NC(=O)[C@@H](NC(=O)[C@H](CCC(=O)O)NC(=O)[C@H](CCC(=O)O)NC(=O)[C@H](CC(=O)O)NC(=O)[C@@H](NC(=O)[C@H](Cc3ccccc3)NC(C)=O)[C@@H](C)CC)C(C)C)C(=O)N[C@@H](CC(C)C)C(=O)N[C@@H](C(C)C)C(=O)N[C@@H]([C@@H](C)CC)C(=O)N2)[C@@H](C)CC)[C@@H](C)O)CCCC=CCCC[C@@](C)(C(=O)N[C@H](C(=O)N[C@@H](CC(N)=O)C(=O)N[C@@H](C)C(N)=O)C(C)C)NC1=O [SP-321] (Ac-FIDEEVLM[S5]LVI[S5]MGLDRIKELPQLT[S5]YD[Abu][S5]VNA-NH2; staple 9-13, 27-31) | ++++ (≥30: ++++) | +++ (≤25 but <50: +++) |
| > 30 µM | 200 to 400 nM | CC[C@@H]1NC(=O)[C@H](CC(=O)O)NC(=O)[C@H](Cc2ccc(O)cc2)NC(=O)[C@@](C)(NC(=O)[C@@H](NC(=O)[C@H](CC(C)C)NC(=O)[C@H](CCC(N)=O)NC(=O)[C@@H]2CCCN2C(=O)[C@H](CC(C)C)NC(=O)[C@H](CCC(=O)O)NC(=O)[C@H](CCCCN)NC(=O)[C@@H](NC(=O)[C@H](CCCNC(=N)N)NC(=O)[C@H](CC(=O)O)NC(=O)[C@H](CC(C)C)NC(=O)CNC(=O)[C@H](CCSC)NC(=O)[C@H](CCC(=O)O)NC(=O)[C@]2(C)CCCC=CCCCCCC[C@@](C)(NC(=O)[C@H](CCC(=O)O)NC(=O)[C@H](CC(=O)O)NC(=O)[C@@H](NC(=O)[C@H](Cc3ccccc3)NC(C)=O)[C@@H](C)CC)C(=O)N[C@@H](C(C)C)C(=O)N[C@@H](CC(C)C)C(=O)N[C@@H](CCSC)C(=O)N[C@@H](CO)C(=O)N[C@@H](CC(C)C)C(=O)N[C@@H](C(C)C)C(=O)N2)[C@@H](C)CC)[C@@H](C)O)CCCC=CCCC[C@@](C)(C(=O)N[C@H](C(=O)N[C@@H](CC(N)=O)C(=O)N[C@@H](C)C(N)=O)C(C)C)NC1=O [SP-323] (Ac-FIDE[R8]VLMSLV[S5]EMGLDRIKELPQLT[S5]YD[Abu][S5]VNA-NH2; staple 5-12, 27-31) | ++++ (≥30: ++++) | + (<10: +) |
| > 30 µM | ≤ 200 nM | CCCC[C@H](NC(=O)[C@H](CCC(=O)O)NC(=O)[C@@H](NC(=O)[C@@H](NC(=O)[C@H](CC(C)C)NC(=O)[C@]1(C)CCCC=CCCC[C@](C)(NC(=O)[C@H](CCC(=O)O)NC(=O)[C@H](CC(=O)O)NC(=O)[C@@H](NC(=O)[C@H](CC(N)=O)NC(=O)[C@@H](NC(=O)[C@]2(C)CCCC=CCCCCCC[C@@](C)(NC(=O)[C@H](CCC(=O)O)NC(=O)CNC(=O)[C@H](CCC(N)=O)NC(=O)[C@H](CC(C)C)NC(=O)[C@H](CC(C)C)NC(C)=O)C(=O)N[C@@H](CC(C)C)C(=O)N[C@@H](CC(C)C)C(=O)N[C@@H](CCCNC(=N)N)C(=O)N[C@@H](C)C(=O)N[C@@H](CC(C)C)C(=O)N[C@@H](CC(=O)O)C(=O)N2)C(C)C)[C@@H](C)CC)C(=O)N[C@@H](C(C)C)C(=O)N[C@@H](CC(C)C)C(=O)N[C@@H](CCCC)C(=O)N1)C(C)C)[C@@H](C)CC)C(=O)NCC(N)=O [SP-328] (Ac-LLQGE[R8]LLRALD[S5]VNIDE[S5]VL[Nle][S5]LVIE[Nle]G-NH2; staple 6-13, 19-23) | ++++ (≥30: ++++) | + (<10: +) |
